Test results reported in PubChem BioAssay AID2060491 (Molecular Pharmacology Branch, DTP, NCI, 2025).

Test system: 857933-349-R-J2-PDC complex spheroids, viability
Assay: Anticancer human tumor 857933-349-R-J2-PDC patient-derived colon adenocarcinoma cell line growth inhibition [GQUAD]
Conditions: for IC50: curve of first compound; for viability, T/C: stronger effect = lower value
Method in brief: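 Viability of tumor cells grown as complex spheroids with endothelial and stromal cells, exposed to drug combinations. Top concentration at or near clinical Cmax (else 10 microM), diluted in half-log increments.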
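Further: spheroids exposed to compounds for one week before readout.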
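Wherever viability, T/C is given: percent viability relative to vehicle DMSO wells taken as 100%.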

Question: For `COc1cccc2c1C(=O)c1c(O)c3c(c(O)c1C2=O)CC(O)(C(=O)CO)CC3OC1CC(N)C(O)C(C)O1` (configuration not stated) + CN(C)c1ccc(Nc2c3ccc(NC(=O)CCN4CCCC4)cc3nc3cc(NC(=O)CCN4CCCC4)ccc23)cc1, which IC50 (second compound 0.0316 µM) is on record?
Answer: 917 nM

Question: What about the IC50 (second compound 0.1 µM) of the same molecule?
Answer: 828 nM

Question: And the IC50 (second compound 0.316 µM)?
Answer: 663 nM

Question: What about the IC50 (second compound 1 µM) of the same molecule?
Answer: 711 nM

Question: What about the IC50 (second compound 3.16 µM) of the same molecule?
Answer: 739 nM

Question: What about the IC50 (second compound 10 µM) of the same molecule?
Answer: 978 nM

Question: What about the viability, T/C (second compound 0.0316 µM, first compound 0.0316 µM) of the same molecule?
Answer: 100%

Question: What about the viability, T/C (second compound 0.0316 µM, first compound 0.1 µM) of the same molecule?
Answer: 97.1%

Question: What about the viability, T/C (second compound 0.0316 µM, first compound 0.316 µM) of the same molecule?
Answer: 76.7%

Question: What about the viability, T/C (second compound 0.0316 µM, first compound 1 µM) of the same molecule?
Answer: 52.2%

Question: And the viability, T/C (second compound 0.0316 µM, first compound 3.16 µM)?
Answer: 8.8%

Question: And the viability, T/C (second compound 0.0316 µM, first compound 10 µM)?
Answer: 0.64%

Question: And the viability, T/C (second compound 0.1 µM, first compound 0.0316 µM)?
Answer: 99.2%

Question: And the viability, T/C (second compound 0.1 µM, first compound 0.1 µM)?
Answer: 92.8%

Question: What about the viability, T/C (second compound 0.1 µM, first compound 0.316 µM) of the same molecule?
Answer: 79.3%

Question: And the viability, T/C (second compound 0.1 µM, first compound 1 µM)?
Answer: 45.4%

Question: And the viability, T/C (second compound 0.1 µM, first compound 3.16 µM)?
Answer: 9.85%

Question: And the viability, T/C (second compound 0.1 µM, first compound 10 µM)?
Answer: 0.72%

Question: And the viability, T/C (second compound 0.316 µM, first compound 0.0316 µM)?
Answer: 102%

Question: And the viability, T/C (second compound 0.316 µM, first compound 0.1 µM)?
Answer: 95.8%

Question: And the viability, T/C (second compound 0.316 µM, first compound 0.316 µM)?
Answer: 72.7%

Question: And the viability, T/C (second compound 0.316 µM, first compound 1 µM)?
Answer: 37.3%

Question: What about the viability, T/C (second compound 0.316 µM, first compound 3.16 µM) of the same molecule?
Answer: 10.8%

Question: What about the viability, T/C (second compound 0.316 µM, first compound 10 µM) of the same molecule?
Answer: 0.64%

Question: What about the viability, T/C (second compound 1 µM, first compound 0.0316 µM) of the same molecule?
Answer: 103%

Question: And the viability, T/C (second compound 1 µM, first compound 0.1 µM)?
Answer: 86%

Question: And the viability, T/C (second compound 1 µM, first compound 0.316 µM)?
Answer: 76.2%

Question: What about the viability, T/C (second compound 1 µM, first compound 1 µM) of the same molecule?
Answer: 39.6%

Question: And the viability, T/C (second compound 1 µM, first compound 3.16 µM)?
Answer: 12.5%

Question: And the viability, T/C (second compound 1 µM, first compound 10 µM)?
Answer: 0.68%

Question: And the viability, T/C (second compound 3.16 µM, first compound 0.0316 µM)?
Answer: 91.6%

Question: What about the viability, T/C (second compound 3.16 µM, first compound 0.1 µM) of the same molecule?
Answer: 76.8%

Question: What about the viability, T/C (second compound 3.16 µM, first compound 0.316 µM) of the same molecule?
Answer: 73.7%

Question: And the viability, T/C (second compound 3.16 µM, first compound 1 µM)?
Answer: 42.6%

Question: And the viability, T/C (second compound 3.16 µM, first compound 3.16 µM)?
Answer: 11.9%

Question: What about the viability, T/C (second compound 3.16 µM, first compound 10 µM) of the same molecule?
Answer: 0.97%

Question: What about the viability, T/C (second compound 10 µM, first compound 0.0316 µM) of the same molecule?
Answer: 70.7%

Question: And the viability, T/C (second compound 10 µM, first compound 0.1 µM)?
Answer: 73.4%

Question: And the viability, T/C (second compound 10 µM, first compound 0.316 µM)?
Answer: 67.1%

Question: And the viability, T/C (second compound 10 µM, first compound 1 µM)?
Answer: 50.1%

Question: What about the viability, T/C (second compound 10 µM, first compound 3.16 µM) of the same molecule?
Answer: 9.58%

Question: What about the viability, T/C (second compound 10 µM, first compound 10 µM) of the same molecule?
Answer: 1.5%
